Experimental data as given in patent publication US20260146046A1, “BICYCLIC FERROPORTIN INHIBITORS” (Vifor (International) AG, priority 2022, published 2026).
Counter-ions that a name gives are not always drawn.

target: T1, ferroportin (Fpn) (Mus musculus, UniProt Q9JHI9); test: Hepcidin Internalization Assay (J774); assay type: cell-based; conditions: J774 cells, 25 nM TMR-hepcidin, 2 hours; average of multiple measurements; read-out: Average (AVE) IC50 of Fpn inhibitors in the hepcidin internalization assay
T1 construct: endogenous in cells; host or cells: J774 mouse macrophage cell line, induced with Fe(III)NTA
T1 sequence (Q9JHI9 1-570): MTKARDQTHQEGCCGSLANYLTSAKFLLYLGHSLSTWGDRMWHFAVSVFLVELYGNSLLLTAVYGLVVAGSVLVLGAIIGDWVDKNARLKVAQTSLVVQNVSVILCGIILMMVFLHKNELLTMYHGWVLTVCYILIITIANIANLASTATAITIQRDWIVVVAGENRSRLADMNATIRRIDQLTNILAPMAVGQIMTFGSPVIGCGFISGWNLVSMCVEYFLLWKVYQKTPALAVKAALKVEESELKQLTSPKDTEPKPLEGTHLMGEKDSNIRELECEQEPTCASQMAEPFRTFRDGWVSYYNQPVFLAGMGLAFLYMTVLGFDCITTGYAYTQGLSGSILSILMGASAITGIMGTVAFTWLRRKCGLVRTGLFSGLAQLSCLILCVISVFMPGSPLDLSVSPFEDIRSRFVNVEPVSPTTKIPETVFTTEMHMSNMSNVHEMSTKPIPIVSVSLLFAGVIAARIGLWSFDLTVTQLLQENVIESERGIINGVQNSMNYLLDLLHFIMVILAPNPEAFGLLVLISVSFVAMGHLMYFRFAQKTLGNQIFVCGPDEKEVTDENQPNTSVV
Excerpt: This cellular assay allows quantification of the binding of hepcidin to ferroportin (Fpn) through microscopic detection of internalization of a fluorescently labeled hepcidin into J774 cells. […] Binding of hepcidin to Fpn triggers internalization and degradation of both hepcidin and Fpn. […] Therefore, microscopic detection of cell-associated TMR fluorescence is a measure of hepcidin binding to Fpn and internalization of hepcidin and Fpn. If TMR-hepcidin is prevented from binding to Fpn, cellular TMR fluorescence remains low (Durrenberger et al, 2013). The effect of small molecular weight Fpn inhibitor compounds in this assay was evaluated in vitro as described below. […] Cat. 655090) and grown at 37° C. with 5% CO2. After overnight incubation, cells were washed 3 times with pre-warmed DMEM w/o phenol red, 30 μl/well of DMEM w/o phenol red was added after the final wash and 10 μl/well of dilution series of test compounds were added in triplicates. […] Cells were incubated in a total volume of 50 μl at 37° C. with 5% CO2 for 2 hours, then Hoechst 33342 dye was added to a final concentration of 0.5 μg/ml to stain nuclei and further incubated for 10 min. at 37° C. with 5% CO2. […] After removal of the paraformaldehyde solution, cells were washed 3 times with PBS leaving 100 μl per well and the plates were sealed with foil plate seal. […] The acquired image data was analysed with the […] analysis software. […] IC50 values were calculated with the Sum(Mean) raw data using “log(inhibitor) vs. response” curve fitting of Prism 5 software (GraphPad Software Inc., version 5.02). For each data set the fit of the “log(inhibitor) vs. response (three parameters)” model was compared to the fit of the “log(inhibitor) vs. response-Variable slope (four parameters)” model and the IC50 data of the preferred model was used.

SMILES	IC50
Fc1cccnc1CNc1nccc2oc(CCNCCc3nc4ccccc4n3CC3CC3)nc12 [Example Compound No. 2, 2-(2-((2-(1-(cyclopropylmethyl)-1H-benzo[d]imidazol-2-yl)ethyl)amino)ethyl)-N-((3-fluoropyridin-2-yl)methyl)oxazolo[4,5-c]pyridin-4-amine]	15 nM
COc1cccc(Cn2c(CCNCCc3nc4c(NCc5ncccc5F)nccc4o3)nc3ccccc32)c1 [Example Compound No. 11, N-((3-fluoropyridin-2-yl)methyl)-2-(2-((2-(1-(3-methoxybenzyl)-1H-benzo[d]-imidazol-2-yl)ethyl)amino)ethyl)oxazolo[4,5-c]pyridin-4-amine]	5 nM
Fc1cccnc1CNc1nccc2oc(CCNCCc3nc4ccccc4n3-c3ccccc3)nc12 [Example Compound No. 17, N-((3-fluoropyridin-2-yl)methyl)-2-(2-((2-(1-phenyl-1H-benzo[d]imidazol-2-yl)ethyl)amino)ethyl)oxazolo[4,5-c]pyridin-4-amine]	25 nM
COCCOCCn1c(CCNCCc2nc3c(NCc4ncccc4F)nccc3o2)nc2ccccc21 [Example Compound No. 3, N-((3-fluoropyridin-2-yl)methyl)-2-(2-((2-(1-(2-(2-methoxyethoxy)ethyl)-1H-benzo[d]imidazol-2-yl)ethyl)amino)ethyl)oxazolo[4,5-c]pyridin-4-amine]	9 nM
Fc1cccnc1CNc1nccc2oc(CCNCCc3nc4ccccc4n3CCN3CCOCC3)nc12 [Example Compound No. 8, N-((3-fluoropyridin-2-yl)methyl)-2-(2-((2-(1-(2-morpholinoethyl)-1H-benzo[d]imidazol-2-yl)ethyl)amino)ethyl)oxazolo[4,5-c]pyridin-4-amine]	7 nM
CN1CCN(CCn2c(CCNCCc3nc4c(NCc5ncccc5F)nccc4o3)nc3cc4c(cc32)OCCO4)CC1 [Example Compound No. 18, N-((3-fluoropyridin-2-yl)methyl)-2-(2-((2-(1-(2-(4-methylpiperazin-1-yl)ethyl)-6,7-dihydro-1H-[1,4]dioxino[2′,3′:4,5]benzo[1,2-d]imidazol-2-yl)ethyl)amino)ethyl)oxazolo[4,5-c]pyridin-4-amine]	20000 nM
COCCn1c(CCNCCc2nc3c(NCc4ncccc4F)nccc3o2)nc2ccccc21 [Example Compound No. 1, N-((3-fluoropyridin-2-yl)methyl)-2-(2-((2-(1-(2-methoxyethyl)-1H-benzo[d]imidazol-2-yl)ethyl)amino)ethyl)oxazolo[4,5-c]pyridin-4-amine]	9 nM
CN(C)CCn1c(CCNCCc2nc3c(NCc4ncccc4F)nccc3o2)nc2cc3c(cc21)OCCO3 [Example Compound No. 14, 2-(2-((2-(1-(2-(dimethylamino)ethyl)-6,7-dihydro-1H-[1,4]dioxino[2′,3′:4,5]benzo[1,2-d]imidazol-2-yl)ethyl)amino)ethyl)-N-((3-fluoropyridin-2-yl)methyl)oxazolo[4,5-c]pyridin-4-amine]	810 nM
Cn1c(CCNCCc2nc3c(NCc4ncccc4F)nccc3o2)nc2ccccc21 [Example Compound No. 22, N-((3-fluoropyridin-2-yl)methyl)-2-(2-((2-(1-methyl-1H-benzo[d]imidazol-2-yl)ethyl)amino)ethyl)oxazolo[4,5-c]pyridin-4-amine formate]	40 nM
COCCn1c(CCN2CC(c3nc4c(NCc5ncccc5F)nccc4o3)C2)nc2ccccc21 [Example Compound No. 5, N-((3-fluoropyridin-2-yl)methyl)-2-(1-(2-(1-(2-methoxyethyl)-1H-benzo[d]imidazol-2-yl)ethyl)azetidin-3-yl)oxazolo[4,5-c]pyridin-4-amine]	7 nM
CCn1c(CCNCCc2nc3c(NCc4ncccc4F)nccc3o2)nc2cc3c(cc21)OCCO3 [Example Compound No. 21, 2-(2-((2-(1-ethyl-6,7-dihydro-1H-[1,4]dioxino[2′,3′:4,5]benzo[1,2-d]imidazol-2-yl)ethyl)amino)ethyl)-N-((3-fluoropyridin-2-yl)methyl)oxazolo[4,5-c]pyridin-4-amine formate]	31 nM
COCCn1c(CCNCCc2nc3c(NCc4ncccc4F)nccc3o2)nc2cc3c(cc21)OCCO3 [Example Compound No. 7, N-((3-fluoropyridin-2-yl)methyl)-2-(2-((2-(1-(2-methoxyethyl)-6,7-dihydro-1H-[1,4]dioxino-[2′,3′:4,5]benzo[1,2-d]imidazol-2-yl)ethyl)amino)ethyl)oxazolo[4,5-c]pyridin-4-amine]	83 nM
Fc1cccnc1CNc1nccc2oc(CCNCCc3nc4ccccc4n3Cc3ccccn3)nc12 [Example Compound No. 15, N-((3-fluoropyridin-2-yl)methyl)-2-(2-((2-(1-(pyridin-2-ylmethyl)-1H-benzo[d]imidazol-2-yl)ethyl)amino)ethyl)oxazolo[4,5-c]pyridin-4-amine]	9500 nM
Fc1cccnc1CNc1nccc2oc(CCNCCc3nc4cc5c(cc4n3-c3ccccc3)OCCO5)nc12 [Example Compound No. 23, N-((3-fluoropyridin-2-yl)methyl)-2-(2-((2-(1-phenyl-6,7-dihydro-1H-[1,4]dioxino[2′,3′:4,5]benzo[1,2-d]imidazol-2-yl)ethyl)amino)ethyl)oxazolo[4,5-c]pyridin-4-amine formate]	18 nM
COCCOCCn1c(CCN2CC(c3nc4c(NCc5ncccc5F)nccc4o3)C2)nc2ccccc21 [Example Compound No. 6, N-((3-fluoropyridin-2-yl)methyl)-2-(1-(2-(1-(2-(2-methoxyethoxy)ethyl)-1H-benzo[d]imidazol-2-yl)ethyl)azetidin-3-yl)oxazolo[4,5-c]pyridin-4-amine]	11 nM
CCn1c(CCNCCc2nc3c(NCc4ncccc4F)nccc3o2)nc2ccccc21 [Example Compound No. 19, 2-(2-((2-(1-ethyl-1H-benzo[d]imidazol-2-yl)ethyl)amino)ethyl)-N-((3-fluoropyridin-2-yl)methyl)oxazolo[4,5-c]pyridin-4-amine]	18 nM
CC(C)OCCn1c(CCNCCc2nc3c(NCc4ncccc4F)nccc3o2)nc2ccccc21 [Example Compound No. 4, N-((3-fluoropyridin-2-yl)methyl)-2-(2-((2-(1-(2-isopropoxyethyl)-1H-benzo[d]imidazol-2-yl)ethyl)amino)ethyl)oxazolo[4,5-c]pyridin-4-amine]	4 nM
Fc1cccnc1CNc1nccc2oc(CCNCCc3nc4ccccc4n3CCc3ccccc3)nc12 [Example Compound No. 16, N-((3-fluoropyridin-2-yl)methyl)-2-(2-((2-(1-phenethyl-1H-benzo[d]imidazol-2-yl)ethyl)amino)ethyl)oxazolo[4,5-c]pyridin-4-amine]	40200 nM
CN(C)CCn1c(CCNCCc2nc3c(NCc4ncccc4F)nccc3o2)nc2ccccc21 [Example Compound No. 20, 2-(2-((2-(1-(2-(dimethylamino)ethyl)-1H-benzo[d]imidazol-2-yl)ethyl)amino)ethyl)-N-((3-fluoropyridin-2-yl)methyl)oxazolo[4,5-c]pyridin-4-amine]	20000 nM
Fc1cccnc1CNc1nccc2oc(CCNCCc3nc4ccccc4n3Cc3cccc(Cl)c3)nc12 [Example Compound No. 12, 2-(2-((2-(1-(3-chlorobenzyl)-1H-benzo[d]imidazol-2-yl)ethyl)amino)ethyl)-N-((3-fluoropyridin-2-yl)methyl)oxazolo[4,5-c]pyridin-4-amine]	28 nM
Fc1cccnc1CNc1nccc2oc(CCNCCc3nc4ccccc4n3Cc3ccccc3)nc12 [Example Compound No. 10, 2-(2-((2-(1-benzyl-1H-benzo[d]imidazol-2-yl)ethyl)amino)ethyl)-N-((3-fluoropyridin-2-yl)methyl)oxazolo[4,5-c]pyridin-4-amine]	8 nM
